Laboratory results from paper PMC2156146 (The Journal of Cell Biology, 1999).
pKd: −log10 of the molar value.

Biological target: T1, SRβ (30-kD β-subunit of the SRP receptor) in SR liposomes (Canis lupus, UniProt A0A8I3Q3L6)
T1 sequence (A0A8I3Q3L6 1-271): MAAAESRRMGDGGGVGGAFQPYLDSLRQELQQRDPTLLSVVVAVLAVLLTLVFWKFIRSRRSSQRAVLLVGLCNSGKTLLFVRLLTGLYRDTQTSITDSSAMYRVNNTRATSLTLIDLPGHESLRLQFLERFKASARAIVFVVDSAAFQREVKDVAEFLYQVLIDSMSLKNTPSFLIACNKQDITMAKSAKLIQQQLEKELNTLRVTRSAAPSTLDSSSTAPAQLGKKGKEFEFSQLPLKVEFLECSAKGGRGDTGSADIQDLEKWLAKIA
T1 sequence (P06625 1-638 partner): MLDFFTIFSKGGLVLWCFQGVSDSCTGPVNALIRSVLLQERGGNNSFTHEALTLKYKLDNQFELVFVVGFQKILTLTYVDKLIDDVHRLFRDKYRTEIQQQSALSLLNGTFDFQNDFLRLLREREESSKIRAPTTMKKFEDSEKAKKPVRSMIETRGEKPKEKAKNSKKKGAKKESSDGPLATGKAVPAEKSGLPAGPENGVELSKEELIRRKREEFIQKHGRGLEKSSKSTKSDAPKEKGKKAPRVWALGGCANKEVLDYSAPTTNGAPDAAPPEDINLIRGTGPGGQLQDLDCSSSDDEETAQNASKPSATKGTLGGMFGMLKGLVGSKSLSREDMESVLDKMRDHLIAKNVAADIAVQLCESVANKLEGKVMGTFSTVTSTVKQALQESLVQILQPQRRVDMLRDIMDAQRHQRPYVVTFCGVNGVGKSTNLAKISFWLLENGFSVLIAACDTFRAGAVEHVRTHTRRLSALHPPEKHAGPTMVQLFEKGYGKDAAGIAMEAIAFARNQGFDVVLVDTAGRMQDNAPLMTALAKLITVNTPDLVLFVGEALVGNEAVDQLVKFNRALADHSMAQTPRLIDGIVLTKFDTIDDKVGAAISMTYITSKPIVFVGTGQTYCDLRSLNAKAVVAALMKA
Test: UV cross-linking of alpha-[…]GTP, saturation, SDS-PAGE and PhosphorImaging
Type: binding

pKd: 7.70
SMILES: Nc1nc2c(ncn2[C@@H]2O[C@H](COP(=O)(O)OP(=O)(O)OP(=O)(O)O)[C@@H](O)[C@H]2O)c(=O)[nH]1 [GTP]
